Experimental data reported in the supplement of paper PMC8617591.

Assays:
[1] = system: Mycobacterium tuberculosis Erdman (autoluminescent); test: FIC90 (Loewe) at 90% inhibition (log2); higher = more antagonistic
Description: (§1)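 DiaMOND equipotent two-drug combination dose responses against autoluminescent M. tuberculosis Erdman in 8 in vitro models. Read-out is OD600, or luminescence for the intracellular and dormancy models, normalised to untreated wells. Hill-fit Einf, AUC25 and GRinf are potency metrics; FIC50 and FIC90 are Loewe-additivity fractional inhibitory concentrations, given as log2 (negative = synergy). Replicates are averaged.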

[2] = system: Mycobacterium tuberculosis Erdman (autoluminescent); test: FIC50 (Loewe) at 50% inhibition (log2); higher = more antagonistic
Description: as §1

[3] = system: Mycobacterium tuberculosis Erdman (autoluminescent); test: Einf, fitted maximum growth inhibition of combination (fraction); higher = stronger maximal inhibition
Description: as §1

[4] = system: Mycobacterium tuberculosis Erdman (autoluminescent); test: AUC25, normalised area under dose response up to IC25 (fraction (0-1)); higher = more potent at low dose
Description: as §1

[5] = system: Mycobacterium tuberculosis Erdman (autoluminescent); test: GRinf, maximum normalised growth rate inhibition (unitless (-1 to 1)); higher = less effect (negative = killing)
Description: as §1

[6] = in vitro model: acidic pH 5.7, time point: terminal (~4-5 doublings, model-specific)
[7] = in vitro model: butyrate, time point: terminal (~4-5 doublings, model-specific)
[8] = in vitro model: cholesterol-high 0.2 mM, time point: terminal (~4-5 doublings, model-specific)
[9] = in vitro model: dormancy (butyrate + nitrate, low O2), time point: terminal (~4-5 doublings, model-specific)
[10] = in vitro model: intracellular J774, time point: constant = terminal
[11] = in vitro model: valerate, time point: terminal (~4-5 doublings, model-specific)
[12] = in vitro model: acidic pH 5.7, time point: constant (~7 days, model-specific)
[13] = in vitro model: butyrate, time point: constant (~7 days, model-specific)
[14] = in vitro model: cholesterol 0.05 mM, time point: constant (~7 days, model-specific)
[15] = in vitro model: cholesterol 0.05 mM, time point: terminal (~4-5 doublings, model-specific)
[16] = in vitro model: cholesterol-high 0.2 mM, time point: constant (~7 days, model-specific)
[17] = in vitro model: dormancy (butyrate + nitrate, low O2), time point: constant (~7 days, model-specific)
[18] = in vitro model: standard 7H9 glycerol, time point: constant = terminal
[19] = in vitro model: valerate, time point: constant (~7 days, model-specific)

CC[C@@H](CO)NCCN[C@@H](CC)CO [ethambutol] + CC(=O)NC[C@H]1CN(c2ccc(N3CCOCC3)c(F)c2)C(=O)O1 [linezolid]
FIC90 [1, 6]: 0.495
FIC90 [1, 7]: 0.243
FIC90 [1, 8]: 1.03
FIC90 [1, 9]: 0.335
FIC90 [1, 10]: 0.585
FIC90 [1, 11]: 0.0781
FIC50 [2, 12]: 0.0133
FIC50 [2, 6]: 1.24
FIC50 [2, 13]: 0.492
FIC50 [2, 7]: 0.333
FIC50 [2, 14]: 0.049
FIC50 [2, 15]: -0.615
FIC50 [2, 16]: 0.732
FIC50 [2, 8]: 0.569
FIC50 [2, 17]: 0.653
FIC50 [2, 9]: -0.181
FIC50 [2, 18]: 0.485
FIC50 [2, 19]: -0.233
FIC50 [2, 11]: 0.293
Einf [3, 12]: 0.79
Einf [3, 6]: 0.957
Einf [3, 13]: 0.88
Einf [3, 7]: 0.934
Einf [3, 14]: 0.741
Einf [3, 15]: 0.952
Einf [3, 16]: 0.935
Einf [3, 8]: 1
Einf [3, 17]: 0.811
Einf [3, 9]: 0.943
Einf [3, 10]: 0.948
Einf [3, 18]: 0.892
Einf [3, 19]: 0.817
Einf [3, 11]: 0.909
AUC25 [4, 12]: 0.0997
AUC25 [4, 6]: 0.0783
AUC25 [4, 13]: 0.0872
AUC25 [4, 7]: 0.0727
AUC25 [4, 14]: 0.151
AUC25 [4, 15]: 0.155
AUC25 [4, 16]: 0.106
AUC25 [4, 8]: 0.104
AUC25 [4, 17]: 0.125
AUC25 [4, 9]: 0.106
AUC25 [4, 18]: 0.0844
AUC25 [4, 19]: 0.091
AUC25 [4, 11]: 0.0651
GRinf [5, 12]: -0.243
GRinf [5, 6]: -0.168
GRinf [5, 13]: 0.121
GRinf [5, 7]: 0.126
GRinf [5, 14]: -0.189
GRinf [5, 15]: -0.325
GRinf [5, 16]: -0.702
GRinf [5, 8]: -0.951
GRinf [5, 17]: 0.461
GRinf [5, 9]: -0.432
GRinf [5, 10]: -0.511
GRinf [5, 18]: 0.15
GRinf [5, 19]: 0.187
GRinf [5, 11]: 0.127

CC(C)/N=c1\cc2n(-c3ccc(Cl)cc3)c3ccccc3nc-2cc1Nc1ccc(Cl)cc1 [clofazimine] + NC(=O)c1cnccn1 [pyrazinamide]
FIC90 [1, 6]: -0.794
FIC90 [1, 13]: 0.884
FIC90 [1, 7]: -0.361
FIC90 [1, 8]: 0.114
FIC90 [1, 17]: -0.326
FIC90 [1, 9]: -0.669
FIC90 [1, 10]: 0.158
FIC90 [1, 11]: 0.152
FIC50 [2, 12]: -0.0856
FIC50 [2, 6]: -0.519
FIC50 [2, 13]: -0.639
FIC50 [2, 7]: -0.58
FIC50 [2, 15]: 0.474
FIC50 [2, 16]: 0.166
FIC50 [2, 8]: 0.233
FIC50 [2, 17]: -0.722
FIC50 [2, 9]: -0.936
FIC50 [2, 18]: -0.68
FIC50 [2, 19]: -0.679
FIC50 [2, 11]: 0.0438
Einf [3, 12]: 0.807
Einf [3, 6]: 0.98
Einf [3, 13]: 0.922
Einf [3, 7]: 0.958
Einf [3, 14]: 0.653
Einf [3, 15]: 0.923
Einf [3, 16]: 0.896
Einf [3, 8]: 1
Einf [3, 17]: 0.935
Einf [3, 9]: 0.989
Einf [3, 10]: 0.996
Einf [3, 18]: 0.96
Einf [3, 19]: 0.885
Einf [3, 11]: 0.938
AUC25 [4, 12]: 0.0987
AUC25 [4, 6]: 0.106
AUC25 [4, 13]: 0.116
AUC25 [4, 7]: 0.0881
AUC25 [4, 14]: 0.146
AUC25 [4, 15]: 0.143
AUC25 [4, 16]: 0.116
AUC25 [4, 8]: 0.0971
AUC25 [4, 17]: 0.12
AUC25 [4, 9]: 0.0754
AUC25 [4, 18]: 0.11
AUC25 [4, 19]: 0.143
AUC25 [4, 11]: 0.0829
GRinf [5, 12]: -0.109
GRinf [5, 6]: -0.397
GRinf [5, 13]: -0.0318
GRinf [5, 7]: -0.00889
GRinf [5, 14]: -0.153
GRinf [5, 15]: -0.338
GRinf [5, 16]: -0.475
GRinf [5, 8]: -0.881
GRinf [5, 17]: -0.0386
GRinf [5, 9]: -0.387
GRinf [5, 10]: -0.38
GRinf [5, 18]: -0.102
GRinf [5, 19]: -0.366
GRinf [5, 11]: 0.0893

COc1nc2ccc(Br)cc2cc1[C@@H](c1ccccc1)[C@@](O)(CCN(C)C)c1cccc2ccccc12 [bedaquiline] + COc1c(N2C[C@@H]3CCCN[C@@H]3C2)c(F)cc2c(=O)c(C(=O)O)cn(C3CC3)c12 [moxifloxacin]
FIC90 [1, 6]: 0.144
FIC90 [1, 13]: 0.849
FIC90 [1, 7]: 0.833
FIC90 [1, 15]: 0.279
FIC90 [1, 16]: 0.255
FIC90 [1, 8]: 0.271
FIC90 [1, 17]: 0.437
FIC90 [1, 9]: 1.39
FIC90 [1, 10]: 0.878
FIC90 [1, 18]: 0.704
FIC90 [1, 11]: 0.622
FIC50 [2, 12]: 0.282
FIC50 [2, 6]: 0.69
FIC50 [2, 13]: 0.816
FIC50 [2, 7]: 0.823
FIC50 [2, 14]: 0.158
FIC50 [2, 15]: 0.528
FIC50 [2, 16]: 0.333
FIC50 [2, 8]: 0.532
FIC50 [2, 17]: 0.814
FIC50 [2, 9]: 0.702
FIC50 [2, 18]: 0.0351
FIC50 [2, 19]: 0.469
FIC50 [2, 11]: 0.485
Einf [3, 12]: 0.834
Einf [3, 6]: 0.974
Einf [3, 13]: 0.966
Einf [3, 7]: 0.981
Einf [3, 14]: 0.777
Einf [3, 15]: 0.951
Einf [3, 16]: 0.968
Einf [3, 8]: 1
Einf [3, 17]: 0.921
Einf [3, 9]: 0.982
Einf [3, 10]: 0.975
Einf [3, 18]: 0.993
Einf [3, 19]: 0.911
Einf [3, 11]: 0.966
AUC25 [4, 12]: 0.111
AUC25 [4, 6]: 0.0707
AUC25 [4, 13]: 0.092
AUC25 [4, 7]: 0.059
AUC25 [4, 14]: 0.112
AUC25 [4, 15]: 0.0888
AUC25 [4, 16]: 0.0699
AUC25 [4, 8]: 0.0477
AUC25 [4, 17]: 0.0664
AUC25 [4, 9]: 0.0916
AUC25 [4, 18]: 0.105
AUC25 [4, 19]: 0.0901
AUC25 [4, 11]: 0.0647
GRinf [5, 12]: -0.5
GRinf [5, 6]: -0.382
GRinf [5, 13]: -0.175
GRinf [5, 7]: -0.131
GRinf [5, 14]: -0.237
GRinf [5, 15]: -0.314
GRinf [5, 16]: -0.699
GRinf [5, 8]: -0.644
GRinf [5, 17]: 0.176
GRinf [5, 9]: -0.143
GRinf [5, 10]: -0.309
GRinf [5, 18]: -0.102
GRinf [5, 19]: -0.123
GRinf [5, 11]: -0.0943
